Data as given in US20050197350A1, “Novel quinoline, tetrahydroquinazoline, and pyrimidine derivatives and methods of treatment related to the use thereof” (TAISHO PHARMACEUTICAL CO., LTD., priority 2003, published 2005).

Tested on: MCH receptors
Assay: MCH receptor activity class (method not given)
Conditions: class by percent of control at 10^-7 M or IC50

SMILES | class
CC(NC(=O)NC1CCC(Nc2cc(N(C)C)c3ccccc3n2)CC1)c1ccccc1 (stereo not shown) [compound 2137] | 3 (Class 3 The value of percent of control at 10^−7 M was more than 60% or the value of IC50 was more than 200 nM.)
CN(C)c1cc(N[C@H]2CC[C@@H](NC(=O)Nc3c(Cl)c(Cl)cc(Cl)c3Cl)CC2)nc2ccccc12 [compound 2138] | 3 (Class 3 The value of percent of control at 10^−7 M was more than 60% or the value of IC50 was more than 200 nM.)
CN(C)c1cc(N[C@H]2CC[C@@H](NC(=O)Nc3ccc(Br)cc3Br)CC2)nc2ccccc12 [compound 2139] | 3 (Class 3 The value of percent of control at 10^−7 M was more than 60% or the value of IC50 was more than 200 nM.)
CN(C)c1cc(N[C@H]2CC[C@@H](NC(=O)NCc3ccc(Cl)cc3Cl)CC2)nc2ccccc12 [compound 2140] | 3 (Class 3 The value of percent of control at 10^−7 M was more than 60% or the value of IC50 was more than 200 nM.)
COc1ccc(NC(=O)N[C@H]2CC[C@@H](Nc3cc(N(C)C)c4ccccc4n3)CC2)c(OC)c1 [compound 2141] | 3 (Class 3 The value of percent of control at 10^−7 M was more than 60% or the value of IC50 was more than 200 nM.)
CCOc1ccccc1NC(=O)N[C@H]1CC[C@@H](Nc2cc(N(C)C)c3ccccc3n2)CC1 [compound 2142] | 3 (Class 3 The value of percent of control at 10^−7 M was more than 60% or the value of IC50 was more than 200 nM.)
CN(C)c1cc(N[C@H]2CC[C@@H](NC(=O)NCc3ccccc3F)CC2)nc2ccccc12 [compound 2143] | 3 (Class 3 The value of percent of control at 10^−7 M was more than 60% or the value of IC50 was more than 200 nM.)
Cc1cc([N+](=O)[O-])ccc1NC(=O)N[C@H]1CC[C@@H](Nc2cc(N(C)C)c3ccccc3n2)CC1 [compound 2144] | 3 (Class 3 The value of percent of control at 10^−7 M was more than 60% or the value of IC50 was more than 200 nM.)
Cc1ccc([N+](=O)[O-])cc1NC(=O)N[C@H]1CC[C@@H](Nc2cc(N(C)C)c3ccccc3n2)CC1 [compound 2145] | 3 (Class 3 The value of percent of control at 10^−7 M was more than 60% or the value of IC50 was more than 200 nM.)
Cc1ccccc1CNC(=O)N[C@H]1CC[C@@H](Nc2cc(N(C)C)c3ccccc3n2)CC1 [compound 2146] | 3 (Class 3 The value of percent of control at 10^−7 M was more than 60% or the value of IC50 was more than 200 nM.)
CN(C)c1cc(N[C@H]2CC[C@@H](NC(=O)Nc3ccccc3[N+](=O)[O-])CC2)nc2ccccc12 [compound 2147] | 3 (Class 3 The value of percent of control at 10^−7 M was more than 60% or the value of IC50 was more than 200 nM.)
CN(C)c1cc(N[C@H]2CC[C@@H](NC(=O)Nc3ccc4c(c3)OCO4)CC2)nc2ccccc12 [compound 2148] | 3 (Class 3 The value of percent of control at 10^−7 M was more than 60% or the value of IC50 was more than 200 nM.)
COc1cc(NC(=O)N[C@H]2CC[C@@H](Nc3cc(N(C)C)c4ccccc4n3)CC2)cc(OC)c1OC [compound 2149, N-(cis-4-{[4-(dimethylamino)quinolin-2-yl]amino}cyclohexyl)-N′-(3,4,5-trimethoxyphenyl)urea] | 1 (Class 1: The value of percent of control at 10^−7 M was less than 40% or the value of IC50 was less than 50 nM.)
COc1ccc(NC(=O)N[C@H]2CC[C@@H](Nc3cc(N(C)C)c4ccccc4n3)CC2)cc1OC [compound 2150] | 3 (Class 3 The value of percent of control at 10^−7 M was more than 60% or the value of IC50 was more than 200 nM.)
COc1ccc(NC(=O)N[C@H]2CC[C@@H](Nc3cc(N(C)C)c4ccccc4n3)CC2)cc1Cl [compound 2151] | 3 (Class 3 The value of percent of control at 10^−7 M was more than 60% or the value of IC50 was more than 200 nM.)
CN(C)c1cc(N[C@H]2CC[C@@H](NC(=O)Nc3ccc(Br)cc3C(F)(F)F)CC2)nc2ccccc12 [compound 2152] | 3 (Class 3 The value of percent of control at 10^−7 M was more than 60% or the value of IC50 was more than 200 nM.)
CN(C)c1cc(N[C@H]2CC[C@@H](NC(=O)NCc3ccc(Br)cc3)CC2)nc2ccccc12 [compound 2153] | 3 (Class 3 The value of percent of control at 10^−7 M was more than 60% or the value of IC50 was more than 200 nM.)
Cc1cc(Cl)ccc1NC(=O)N[C@H]1CC[C@@H](Nc2cc(N(C)C)c3ccccc3n2)CC1 [compound 2154] | 3 (Class 3 The value of percent of control at 10^−7 M was more than 60% or the value of IC50 was more than 200 nM.)
CN(C)c1cc(N[C@H]2CC[C@@H](NC(=O)NCc3ccc(F)cc3)CC2)nc2ccccc12 [compound 2155] | 3 (Class 3 The value of percent of control at 10^−7 M was more than 60% or the value of IC50 was more than 200 nM.)
COc1ccc(NC(=O)N[C@H]2CC[C@@H](Nc3cc(N(C)C)c4ccccc4n3)CC2)c(C)c1 [compound 2156] | 3 (Class 3 The value of percent of control at 10^−7 M was more than 60% or the value of IC50 was more than 200 nM.)

SMILES | class
COc1cc(OC)c(NC(=O)N[C@H]2CC[C@@H](Nc3cc(N(C)C)c4ccccc4n3)CC2)cc1Cl [compound 2157, N-(5-chloro-2,4-dimethoxyphenyl)-N′-(cis-4-{[4-(dimethylamino)quinolin-2-yl]amino}cyclohexyl)urea] | 1 (Class 1: The value of percent of control at 10^−7 M was less than 40% or the value of IC50 was less than 50 nM.)
Cc1cc(Br)ccc1NC(=O)N[C@H]1CC[C@@H](Nc2cc(N(C)C)c3ccccc3n2)CC1 [compound 2159] | 2 (Class 2: The value of percent of control at 10^−7 M was from 40% to 60% or the value of IC′50 was from 50 nM to 200 nM.)
CN(C)c1cc(N[C@H]2CC[C@@H](NC(=O)Nc3ccc4c(c3)OCCO4)CC2)nc2ccccc12 [compound 2161] | 3 (Class 3 The value of percent of control at 10^−7 M was more than 60% or the value of IC50 was more than 200 nM.)
CC(C)c1cc(Br)c(NC(=O)N[C@H]2CC[C@@H](Nc3cc(N(C)C)c4ccccc4n3)CC2)c(Br)c1 [compound 2162] | 3 (Class 3 The value of percent of control at 10^−7 M was more than 60% or the value of IC50 was more than 200 nM.)
COc1ccc(NC(=O)N[C@H]2CC[C@@H](Nc3cc(N(C)C)c4ccccc4n3)CC2)cc1OC1CCCC1 [compound 2163] | 3 (Class 3 The value of percent of control at 10^−7 M was more than 60% or the value of IC50 was more than 200 nM.)
CN(C)c1cc(N[C@H]2CC[C@@H](NC(=O)Nc3ccc4c(c3)OCCCO4)CC2)nc2ccccc12 [compound 2164] | 3 (Class 3 The value of percent of control at 10^−7 M was more than 60% or the value of IC50 was more than 200 nM.)
CCCCc1ccc(NC(=O)N[C@H]2CC[C@@H](Nc3cc(N(C)C)c4ccccc4n3)CC2)c(C)c1 [compound 2165] | 3 (Class 3 The value of percent of control at 10^−7 M was more than 60% or the value of IC50 was more than 200 nM.)
Cc1onc(-c2ccccc2)c1NC(=O)N[C@H]1CC[C@@H](Nc2cc(N(C)C)c3ccccc3n2)CC1 [compound 2166] | 3 (Class 3 The value of percent of control at 10^−7 M was more than 60% or the value of IC50 was more than 200 nM.)
CN(C)c1cc(N[C@H]2CC[C@@H](NC(=S)Nc3ccc(Br)cc3)CC2)nc2ccccc12 [compound 2167] | 3 (Class 3 The value of percent of control at 10^−7 M was more than 60% or the value of IC50 was more than 200 nM.)
CN(C)c1cc(N[C@H]2CC[C@@H](NC(=S)Nc3ccc(C#N)cc3)CC2)nc2ccccc12 [compound 2168] | 3 (Class 3 The value of percent of control at 10^−7 M was more than 60% or the value of IC50 was more than 200 nM.)
CN(C)c1cc(N[C@H]2CC[C@@H](NC(=S)Nc3ccc(Cl)cc3Cl)CC2)nc2ccccc12 [compound 2169] | 3 (Class 3 The value of percent of control at 10^−7 M was more than 60% or the value of IC50 was more than 200 nM.)
COc1ccc(NC(=S)N[C@H]2CC[C@@H](Nc3cc(N(C)C)c4ccccc4n3)CC2)c(OC)c1 [compound 2170] | 2 (Class 2: The value of percent of control at 10^−7 M was from 40% to 60% or the value of IC′50 was from 50 nM to 200 nM.)
Cc1cccc(C)c1NC(=S)N[C@H]1CC[C@@H](Nc2cc(N(C)C)c3ccccc3n2)CC1 [compound 2171] | 3 (Class 3 The value of percent of control at 10^−7 M was more than 60% or the value of IC50 was more than 200 nM.)
CCc1cccc(C(C)C)c1NC(=S)N[C@H]1CC[C@@H](Nc2cc(N(C)C)c3ccccc3n2)CC1 [compound 2172] | 3 (Class 3 The value of percent of control at 10^−7 M was more than 60% or the value of IC50 was more than 200 nM.)
COc1ccccc1NC(=S)N[C@H]1CC[C@@H](Nc2cc(N(C)C)c3ccccc3n2)CC1 [compound 2173] | 3 (Class 3 The value of percent of control at 10^−7 M was more than 60% or the value of IC50 was more than 200 nM.)
CN(C)c1cc(N[C@H]2CC[C@@H](NC(=S)Nc3cccc4ccccc34)CC2)nc2ccccc12 [compound 2174] | 3 (Class 3 The value of percent of control at 10^−7 M was more than 60% or the value of IC50 was more than 200 nM.)
COc1cc(NC(=S)N[C@H]2CC[C@@H](Nc3cc(N(C)C)c4ccccc4n3)CC2)cc(OC)c1OC [compound 2175, N-(cis-4-{[4-(dimethylamino)quinolin-2-yl]amino}cyclohexyl)-N′-(3,4,5-trimethoxyphenyl)thiourea] | 1 (Class 1: The value of percent of control at 10^−7 M was less than 40% or the value of IC50 was less than 50 nM.)
COc1ccc(NC(=S)N[C@H]2CC[C@@H](Nc3cc(N(C)C)c4ccccc4n3)CC2)cc1OC [compound 2176] | 3 (Class 3 The value of percent of control at 10^−7 M was more than 60% or the value of IC50 was more than 200 nM.)
CN(C)c1cc(N[C@H]2CC[C@@H](NC(=S)Nc3ccc(N(C)C)c4ccccc34)CC2)nc2ccccc12 [compound 2177, N-[4-(dimethylamino)-1-naphthyl]-N′-(cis-4-{[4-(dimethylamino)quinolin-2-yl]amino}cyclohexyl)thiourea] | 2 (Class 2: The value of percent of control at 10^−7 M was from 40% to 60% or the value of IC′50 was from 50 nM to 200 nM.)
CCc1ccccc1NC(=S)N[C@H]1CC[C@@H](Nc2cc(N(C)C)c3ccccc3n2)CC1 [compound 2178] | 3 (Class 3 The value of percent of control at 10^−7 M was more than 60% or the value of IC50 was more than 200 nM.)
